Measured values: patent EP0731088B1, “Retroviral protease inhibitors” (MONSANTO COMPANY, priority 1990, dated 1992)
pIC50: −log10 of the molar value.

Experiments:
HIV-1 = test: CEM cell assay: HIV inhibition in acutely infected cells, tetrazolium (MTT) based colorimetric assay; conditions: Table 19; test concentration not given; CEM cells infected with HIV-1, 7 days
Experimental: The effectiveness of the compounds listed in Table 19 were determined in the above-described enzyme assay and in a CEM cell assay.
Methods 20, 309-321 (1988).

HIV protease = biological target: T1, HIV protease (Human immunodeficiency virus type 1 group M subtype B, UniProt P04585); test: HIV protease enzyme assay (fluorogenic substrate 2-aminobenzoyl-Ile-Nle-Phe(p-NO2)-Gln-ArgNH2); type: biochemical; conditions: substrate 80 µM, enzyme 12.3 nanomolar, pH 6.4, ambient temperature
T1 construct: HIV protease is diluted in the assay buffer to a final enzyme concentration of 12.3 nanomolar, based on a molecular weight of 10,780
Description: The compounds of the present invention are effective HIV protease inhibitors. Utilizing an enzyme assay as described below, the compounds set forth in the examples herein disclosed inhibited the HIV enzyme. The preferred compounds of the present invention and their calculated IC50 (inhibiting concentration 50%, i.e., the concentration at which the inhibitor compound reduces enzyme activity by 50%) values are shown in Table 18. The enzyme method is described below. The substrate is 2-aminobenzoyl-Ile-Nle-Phe(p-NO2)-Gln-ArgNH2. The positive control is MVT-101 (Miller, M. et al, Science, 246, 1149 (1989)] The assay conditions are as follows: Assay buffer: • 20 mM sodium phosphate, pH 6.4 • 20% glycerol • 1 mM EDTA • 1 mM DTT • 0.1% CHAPS
The above described substrate is dissolved in DMSO, then diluted 10 fold in assay buffer. Final substrate concentration in the assay is 80 µM.
HIV protease is diluted in the assay buffer to a final enzyme concentration of 12.3 nanomolar, based on a molecular weight of 10,780.
The final concentration of DMSO is 14% and the final concentration of glycerol is 18%. […] The increase in fluorescence is monitored at 4 time points (0, 8, 16 and 24 minutes) at ambient temperature. […]

Row | Structure (SMILES) | Inhibition (HIV-1) [%] | pIC50 (HIV protease)
1 | CC(C)CCN(C[C@@H](O)[C@H](Cc1ccccc1)NC(=O)[C@H](CC(N)=O)NC(=O)c1ccc2ccccc2n1)C(=O)CC(C)(C)C (relative stereo) [Compound 1, Butanediamide, N^1-[3-[[[(2,2-dimethyl)propyl]carbonyl](3-methylbutyl)amino]-2-hydroxy-1-(phenylmethyl)propyl]-2-[(2-quinolinylcarbonyl)amino]-, [1S-[1R*(2R*),2S*]]] | 100 | 7.68
2 | CCCCC(=O)N(CC1CCCCC1)C[C@@H](O)[C@H](Cc1ccccc1)NC(=O)[C@H](CC(N)=O)NC(=O)OCc1ccccc1 (relative stereo) [Compound 2, Butanediamide, N^1-[3-[[butylcarbonyl](cyclohexylmethyl)amino]-2-hydroxy-1-(phenylmethyl)propyl]-2-[(phenylmethyloxy)carbonyl)amino]-, [1S-[1R*(2R*),2S*]]] |  | 6.16
